# Measurements taken from EP0680973A1, “Peptides, process to prepare them and their use” (priority 1994, dated 1995).
# Ends that are not written are not given here.
# System: HIV-1 Protease
# Type: biochemical
# Conditions: bei 50 µM, nur 1 Bestimmung; 5% DMSO
substance,measurement,value
PQITLSDRLGGGGDRVSFNF-NH2 [HPQITLSDRLGGGGDRVSFNF-NH₂],Inhibition der HIV-1 Protease,36%⁺
